Consider one compound from publication PMC5674900, “Identification of new channels by systematic analysis of the mitochondrial outer membrane” (The Journal of Cell Biology, 2017).

Molecules are shown by their SMILES. Substitutions are numbered along the chain they refer to.

Assay [1] deals with T1, Ayr1 (Saccharomyces cerevisiae, UniProt P40471, G20A/G22A).
T1 construct: ORF with His10 tag, expressed in E. coli BL21(DE3), purified in urea, reconstituted into liposomes / planar lipid bilayer; 33 kD
T1 sequence (P40471 1-297 G20A/G22A): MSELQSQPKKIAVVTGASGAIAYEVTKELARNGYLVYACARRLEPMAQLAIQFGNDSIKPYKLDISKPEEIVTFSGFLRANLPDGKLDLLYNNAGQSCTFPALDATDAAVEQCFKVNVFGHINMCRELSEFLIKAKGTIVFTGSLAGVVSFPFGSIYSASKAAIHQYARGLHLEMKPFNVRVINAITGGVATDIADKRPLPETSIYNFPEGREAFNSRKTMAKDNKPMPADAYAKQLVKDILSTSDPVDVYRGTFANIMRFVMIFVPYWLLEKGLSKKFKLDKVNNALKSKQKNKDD
Nature of the assay: planar lipid bilayer electrophysiology, reconstituted channel. The note with it: 1 mM NADPH; symmetrical 250 mM KCl, pH 7.0; activator of channel gating; NADPH-binding motif mutant, effect mostly abolished. The assay is classed as biochemical.

Assay [2] concerns the target T2, Ayr1 (Saccharomyces cerevisiae, UniProt P40471).
T2 construct: ORF with His10 tag, expressed in E. coli BL21(DE3), purified in urea, reconstituted into liposomes / planar lipid bilayer; 33 kD
T2 sequence (P40471 1-297): T1 sequence (P40471 1-297 G20A/G22A) with A20G, A22G
The description is as above. The note with it: 1 mM NADPH; symmetrical 250 mM KCl, pH 7.0; activator of channel gating. Type of assay: biochemical.

For `NC(=O)C1=CN([C@@H]2O[C@H](COP(=O)(O)OP(=O)(O)OC[C@H]3O[C@@H](n4cnc5c(N)ncnc54)[C@H](OP(=O)(O)O)[C@@H]3O)[C@@H](O)[C@H]2O)C=CC1` [NADPH], the “planar lipid bilayer electrophysiology, reconstituted channel” value is “the effect of NAPDH was mostly abolished, and no increase of the gating frequency was observed” on Ayr1 [1]; “NADPH strongly stimulated the frequency of gating between the distinct states” on Ayr1 [2].
